Assay results published in ChEMBL document CHEMBL4229359, “Simple 2(5H)-furanone derivatives with selective cytotoxicity towards non-small cell lung cancer cell line A549 - Synthesis, structure-activity relationship and biological evaluation” (Eur J Med Chem, 2018).

Key:
A549 [1] = assay: Cytotoxicity against human A549 cells assessed as reduction in cell viability after 72 hrs by MTT assay; assay type: functional, cell-based; details: A549, 72 h
BEAS-2B = assay: Cytotoxicity against human BEAS2B cells assessed as reduction in cell viability after 72 hrs by MTT assay; assay type: cell-based
[2] = Selectivity index, ratio of IC50 for human BEAS2B cells to IC50 for human A549 cells; assay type: toxicity
A549 [3] = assay: Cell cycle arrest in human A549 cells assessed as accumulation at G1-phase at 10 uM after 72 hrs by propidium iodide staining based flow cytometry (reference value: 75.2 to 76%); assay type: functional
A549 [4] = assay: Cell cycle arrest in human A549 cells assessed as accumulation at S-phase at 10 uM after 72 hrs by propidium iodide staining based flow cytometry (reference value: 16.8 to 18.5%); assay type: functional
A549 [5] = assay: Cell cycle arrest in human A549 cells assessed as accumulation at G2/M-phase at 10 uM after 72 hrs by propidium iodide staining based flow cytometry (reference value: 6.3 to 7.2%); assay type: functional
A549 [6] = assay: Anticlonogenic activity against human A549 cells at 10 uM after 72 hrs by crystal violet staining based microscopic method relative to control; assay type: functional

Structure (SMILES) | IC50 (A549 [1]) [µM] | IC50 (BEAS-2B) [µM] | log(RatioIC50) [2] | Activity (A549 [3]) [%] | Activity (A549 [4]) [%] | Activity (A549 [5]) [%] | Activity (A549 [6]) [%]
CC(C)OC1OC(=O)C(Cl)=C1N1CCCCC1 (stereo not given) | > 400 | > 400 |  |  |  |  | 
CC(C)OC1OC(=O)C(Cl)=C1Nc1ccc(F)cc1 (stereo not given) | 186 | > 400 |  |  |  |  | 
CC(C)(C)COC1OC(=O)C(Cl)=C1Nc1ccc(F)cc1 (stereo not given) | 26.7 | 47.6 | 0.25 |  |  |  | 
C#Cc1cccc(Nc2ncnc3cc(OCCOC)c(OCCOC)cc23)c1 [ERLOTINIB] |  |  |  | 74.5 | 18.5 | 6 | 75
CCCCOC1OC(=O)C(Cl)=C1Nc1ccccc1 (stereo not given) | 175 | 206 | 0.07 |  |  |  | 
CC(C)(C)COC1OC(=O)C(Cl)=C1Nc1ccc(Br)cc1 (stereo not given) | 28 | 30.9 | 0.23 |  |  |  | 
CCCCOC1OC(=O)C(Cl)=C1Cl (stereo not given) | 22.5 | 22.3 | 0 |  |  |  | 
CC(C)(C)COC1OC(=O)C(Cl)=C1Nc1ccccc1 (stereo not given) | 76.2 | 76.2 | 0 |  |  |  | 
CCCCOC1OC(=O)C(Cl)=C1N1CCCCC1 (stereo not given) | 93.3 | 172 | 0.27 |  |  |  | 
CCCCOC1OC(=O)C(Cl)=C1Nc1ccc(Cl)cc1 (stereo not given) | 58.1 | 60.8 | 0.02 |  |  |  | 
CCCCOC1OC(=O)C(Cl)=C1Nc1ccc(F)cc1 (stereo not given) | 78.5 | 122 | 0.19 |  |  |  | 
CC(C)OC1OC(=O)C(Cl)=C1Nc1ccc(Br)cc1 (stereo not given) | 95.9 | 202 | 0.32 |  |  |  | 
